ChEMBL document CHEMBL1201862, “PubChem BioAssay data set” (2004)
Active and inactive are the calls of the source.

Tests used:
[1] = inhibitors of intracellular T. cruzi replication, confirmation, NIH3T3 host cells, beta-gal luminescence (AID 2044); format: functional, cell-based;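 note: intracellular parasites grown in NIH/3T3 mouse fibroblasts as host cells; luminescent beta-galactosidase reporter signal from transgenic T. cruzi replicating inside host cells; inhibitors lower the luminescence signal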
[2] = Fluorescence-based cell-based high throughput dose response assay for inhibitors of the interaction of nucleotide-binding oligomerization domain containing 2 (NOD2) and the receptor-interacting serine-threonine kinase 2 (RIPK2).; format: functional; details: Homo sapiens
INS1 = experiment: beta cell apoptosis inhibitors, cytokine rescue, dose response, luminescence, retest (AID 449756); format: functional, cell-based; details: Rattus norvegicus;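 note: cell death triggered by IL-1 beta plus TNF-alpha plus IFN-gamma mixture; protective hits raise ATP signal compared with cytokine alone wells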
[3] = Shn3 3'UTR reporter inhibitors, dose response, cell-based, Clone20 osteoblasts, firefly luciferase, cherry-picked (AID 624132); format: functional;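 note: firefly luciferase luminescence from reporter carrying the Shn3 3'UTR in osteoblasts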
[4] = microbe, parasite or virus in culture; format: functional; details: Mycobacterium tuberculosis
[5] = biological target: T1, Heat shock factor protein 1 (Mus musculus, UniProt P38532); experiment: inhibition of MG132-induced HSE-luciferase signal, confirmation, cell-based, NIH3T3, luminescence, dose retest (AID 2382); format: functional;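 note: NIH3T3 fibroblasts with HSF1-driven luciferase reporter stressed by proteasome inhibitor MG132; luminescence from HSF1-driven luciferase expression after 8 hours of MG132 stress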
T1 sequence (P38532 whole entry): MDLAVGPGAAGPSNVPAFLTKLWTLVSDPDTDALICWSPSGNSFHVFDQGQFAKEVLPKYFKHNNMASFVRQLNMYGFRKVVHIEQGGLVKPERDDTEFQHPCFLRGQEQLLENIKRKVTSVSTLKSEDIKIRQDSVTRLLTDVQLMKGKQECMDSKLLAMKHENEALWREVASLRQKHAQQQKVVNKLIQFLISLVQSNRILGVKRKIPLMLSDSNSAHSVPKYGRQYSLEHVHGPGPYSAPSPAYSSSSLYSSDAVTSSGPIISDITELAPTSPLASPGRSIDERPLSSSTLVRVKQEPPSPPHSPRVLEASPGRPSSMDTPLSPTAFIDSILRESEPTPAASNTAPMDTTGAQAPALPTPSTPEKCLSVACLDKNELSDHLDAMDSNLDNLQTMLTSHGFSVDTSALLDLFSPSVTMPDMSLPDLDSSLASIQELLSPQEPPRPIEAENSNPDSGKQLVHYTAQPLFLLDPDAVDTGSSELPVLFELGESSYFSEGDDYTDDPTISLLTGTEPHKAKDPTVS

[6] = LGR2 antagonists, dose response, cell-based, HEK293, CRE-luciferase reporter, cherry pick, set 2 (AID 743343); format: functional;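 note: transfected cells were stimulated with diluted bursicon conditioned medium after compound addition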
[7] = A549 cell cytotoxicity, dose response, cytotoxicity control, plate reader, cherry-pick, antagonist series (AID 743412); format: functional, cell-based
[8] = biological target: T2, Type-1 angiotensin II receptor (Homo sapiens, UniProt P30556); experiment: AT1 receptor antagonists, dose response, selectivity assay for APJ receptor antagonist project, cell-based, uHTS hits (AID 463214); format: functional;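 note: antagonist potency against angiotensin II stimulated AT1 response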
T2 sequence (P30556 whole entry): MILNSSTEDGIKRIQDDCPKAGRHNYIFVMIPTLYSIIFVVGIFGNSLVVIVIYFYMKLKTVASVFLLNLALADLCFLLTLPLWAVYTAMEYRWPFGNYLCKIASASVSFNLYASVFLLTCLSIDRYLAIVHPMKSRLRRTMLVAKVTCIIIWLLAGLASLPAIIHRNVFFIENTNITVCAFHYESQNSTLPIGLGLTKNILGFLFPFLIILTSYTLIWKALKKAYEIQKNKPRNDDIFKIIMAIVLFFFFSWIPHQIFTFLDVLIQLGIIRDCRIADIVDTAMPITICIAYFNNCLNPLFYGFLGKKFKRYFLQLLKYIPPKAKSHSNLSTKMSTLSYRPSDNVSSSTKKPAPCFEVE

[9] = Luminescence-based dose response cell-based high throughput screening assay for cytotoxic compounds using the IEC-6 intestinal epithelial cell line. [Related pubchem assays: 1858 (Summary AID.), 1825 (Counterscreen.), 1907 (Confirmation screen.)]; format: functional
[10] = HepG2 cell cytotoxicity, dose response, cytotoxicity control, plate reader, cherry-pick, antagonist series (AID 743416); format: functional, cell-based
[11] = HepG2 cell cytotoxicity, dose response, cytotoxicity control for Shn3 inhibitor project, CellTiter-Glo, cherry-picked (AID 624134); format: functional, cell-based
[12] = cytotoxicity toward NIH3T3 fibroblasts, dose response, counter-screen, cell-based, ATP luminescence, mouse fibroblasts (AID 2010); format: functional;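 note: cells exposed to compound for about 90 hours before reading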
Beta-galactosidase = Beta-galactosidase (Escherichia coli, UniProt Q8VNN2); experiment: PubChem AID 485352; format: functional
[13] = HEK293 cell cytotoxicity, dose response, cytotoxicity control, plate reader, cherry-picked samples (AID 743446); format: functional, cell-based
[14] = MC4R antagonists, dose response, counter-screen for LGR2 antagonist project, cell-based, plate reader, cherry pick (AID 743444); format: functional;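 note: transfected HEK 293 cells stimulated with alpha-MSH peptide; potency of inhibitors of the alpha-MSH evoked signal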
[15] = control 3'UTR Renilla luciferase suppression, dose response, counter-screen for Shn3 inhibitor project, cell-based, Clone20-Shn3RL, cherry-picked (AID 624133); format: functional
[16] = A Cell Based Secondary Assay To Explore Cytotoxicity of Compounds that Sensitize Mycobacterium Tuberculosis to Beta-Lactam Antibiotics.; format: functional
X-box-binding protein 1 = X-box-binding protein 1 (Homo sapiens, UniProt P17861); format: functional, Cricetulus griseus;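 note: confirmatory dose-response counter-screen serving a CHOP assay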
[17] = biological target: Voltage-gated N-type calcium channel alpha-1B subunit/Amyloid beta A4 precursor protein-binding family A member 1 (Homo sapiens, UniProt Q00975+Q02410); experiment: disruptors of Mint-PDZ/N-type channel peptide interaction – biochemical, HTRF, set 2, SAR follow-up (AID 434980); format: functional
[18] = Luminescence Cell-Based Dose Confirmation HTS to Identify Inhibitors of Polyadenylation.; format: functional
[19] = biological target: Peroxisome proliferator-activated receptor gamma/Nuclear receptor coactivator 1 (Homo sapiens, UniProt P37231); format: functional;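 note: agonist potency as compounds enhance coactivator SRC-1 recruitment to PPARgamma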
[20] = biological target: Peroxisome proliferator-activated receptor gamma/Nuclear receptor coactivator 3 (Homo sapiens, UniProt P37231); format: functional;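 note: agonist potency for raising coactivator recruitment to the receptor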
[21] = biological target: T3, Aryl hydrocarbon receptor (Homo sapiens, UniProt P35869); experiment: Luminescence-based cell-based high throughput dose response assay for activators of the Aryl Hydrocarbon Receptor (AHR). [Related pubchem assays: 2796 (Primary screen (AHR activators in singlicate)), 2845 (Confirmation screen (AHR activators in triplicate)), 434939 (Counterscreen (PXR activators in triplicate)), 2804 (Summary (AHR activators))]; format: ADME
T3 sequence (P35869 whole entry): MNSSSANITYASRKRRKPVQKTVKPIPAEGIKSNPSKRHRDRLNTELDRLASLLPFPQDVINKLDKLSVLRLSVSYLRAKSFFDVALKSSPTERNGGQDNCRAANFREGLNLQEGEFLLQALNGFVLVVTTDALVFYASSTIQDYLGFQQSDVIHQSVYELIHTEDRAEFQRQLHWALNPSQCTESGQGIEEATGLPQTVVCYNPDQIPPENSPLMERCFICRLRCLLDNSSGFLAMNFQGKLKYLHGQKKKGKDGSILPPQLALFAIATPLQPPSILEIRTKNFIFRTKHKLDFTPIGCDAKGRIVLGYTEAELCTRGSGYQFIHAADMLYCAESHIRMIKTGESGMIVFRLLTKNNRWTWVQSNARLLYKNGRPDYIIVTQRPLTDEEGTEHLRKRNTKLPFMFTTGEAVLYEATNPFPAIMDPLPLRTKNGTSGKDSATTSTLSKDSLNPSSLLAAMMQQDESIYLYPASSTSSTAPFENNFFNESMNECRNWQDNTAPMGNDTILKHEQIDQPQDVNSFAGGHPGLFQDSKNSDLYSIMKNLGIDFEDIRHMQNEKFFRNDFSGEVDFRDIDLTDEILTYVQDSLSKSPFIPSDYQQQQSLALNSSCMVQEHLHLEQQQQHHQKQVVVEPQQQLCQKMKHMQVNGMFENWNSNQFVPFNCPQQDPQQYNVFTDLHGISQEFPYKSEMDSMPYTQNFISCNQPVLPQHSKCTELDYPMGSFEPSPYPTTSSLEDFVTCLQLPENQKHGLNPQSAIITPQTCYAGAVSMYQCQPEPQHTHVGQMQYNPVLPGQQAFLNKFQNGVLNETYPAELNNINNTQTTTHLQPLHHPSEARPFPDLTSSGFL

[22] = biological target: Peroxisome proliferator-activated receptor gamma/Nuclear receptor coactivator 2 (Homo sapiens, UniProt P37231); format: functional;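 note: agonist potency for raising coactivator recruitment to the receptor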
[23] = cytotoxicity toward DRD oncogenic fibroblasts, dose response, cell-based, non-viral oncogenic, luminescence (AID 1934); format: functional; details: Homo sapiens
[24] = Luminescence Cell-Based Dose Response HTS to Identify Inhibitors of 5'UTR Stem-Loop Driven Prion Protein mRNA Translation in H4 Neuroglioblastoma Cells. [Related pubchem assays: 1827 (Project Summary), 1813 (Primary HTS)]; format: functional
BJ [25] = experiment: cytotoxicity toward BJ-TERT-LT-ST fibroblasts, dose response, cell-based, RAS-independent, luminescence (AID 1935); format: functional; details: Homo sapiens;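 note: BJ fibroblasts immortalized with TERT plus LT and ST oncogenes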
BJ [26] = experiment: cytotoxicity toward BJ-TERT fibroblasts, dose response, cell-based, RAS-independent, luminescence (AID 1933); format: functional; details: Homo sapiens
[27] = inhibitors of SNCA 5'UTR-driven reporter translation, confirmation, H4 neuroglioma cells, luminescence (AID 1988); format: functional, cell-based
[28] = inhibitors of firefly luciferase expression or activity, dose response, H4 neuroglioma cells, luminescence (AID 1990); format: functional, cell-based
BJ [29] = experiment: cells; format: functional, cell-based; details: Homo sapiens

Peroxisome proliferator-activated receptor gamma/Nuclear receptor coactivator 1, sequence (P37231 whole entry): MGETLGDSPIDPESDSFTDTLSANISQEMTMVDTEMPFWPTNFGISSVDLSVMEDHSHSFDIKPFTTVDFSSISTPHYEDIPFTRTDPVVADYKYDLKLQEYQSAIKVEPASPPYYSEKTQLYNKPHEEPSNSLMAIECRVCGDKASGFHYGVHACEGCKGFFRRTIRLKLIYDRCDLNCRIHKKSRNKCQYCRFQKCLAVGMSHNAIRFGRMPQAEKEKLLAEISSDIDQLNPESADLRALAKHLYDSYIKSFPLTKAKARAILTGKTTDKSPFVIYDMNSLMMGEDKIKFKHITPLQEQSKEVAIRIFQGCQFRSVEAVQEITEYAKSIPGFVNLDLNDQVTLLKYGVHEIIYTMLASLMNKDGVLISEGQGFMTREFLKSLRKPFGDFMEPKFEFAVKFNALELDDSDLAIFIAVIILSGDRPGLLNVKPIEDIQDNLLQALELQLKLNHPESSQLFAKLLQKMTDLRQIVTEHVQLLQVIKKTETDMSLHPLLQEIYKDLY
Peroxisome proliferator-activated receptor gamma/Nuclear receptor coactivator 1, sequence (Q15788 whole entry, further chain): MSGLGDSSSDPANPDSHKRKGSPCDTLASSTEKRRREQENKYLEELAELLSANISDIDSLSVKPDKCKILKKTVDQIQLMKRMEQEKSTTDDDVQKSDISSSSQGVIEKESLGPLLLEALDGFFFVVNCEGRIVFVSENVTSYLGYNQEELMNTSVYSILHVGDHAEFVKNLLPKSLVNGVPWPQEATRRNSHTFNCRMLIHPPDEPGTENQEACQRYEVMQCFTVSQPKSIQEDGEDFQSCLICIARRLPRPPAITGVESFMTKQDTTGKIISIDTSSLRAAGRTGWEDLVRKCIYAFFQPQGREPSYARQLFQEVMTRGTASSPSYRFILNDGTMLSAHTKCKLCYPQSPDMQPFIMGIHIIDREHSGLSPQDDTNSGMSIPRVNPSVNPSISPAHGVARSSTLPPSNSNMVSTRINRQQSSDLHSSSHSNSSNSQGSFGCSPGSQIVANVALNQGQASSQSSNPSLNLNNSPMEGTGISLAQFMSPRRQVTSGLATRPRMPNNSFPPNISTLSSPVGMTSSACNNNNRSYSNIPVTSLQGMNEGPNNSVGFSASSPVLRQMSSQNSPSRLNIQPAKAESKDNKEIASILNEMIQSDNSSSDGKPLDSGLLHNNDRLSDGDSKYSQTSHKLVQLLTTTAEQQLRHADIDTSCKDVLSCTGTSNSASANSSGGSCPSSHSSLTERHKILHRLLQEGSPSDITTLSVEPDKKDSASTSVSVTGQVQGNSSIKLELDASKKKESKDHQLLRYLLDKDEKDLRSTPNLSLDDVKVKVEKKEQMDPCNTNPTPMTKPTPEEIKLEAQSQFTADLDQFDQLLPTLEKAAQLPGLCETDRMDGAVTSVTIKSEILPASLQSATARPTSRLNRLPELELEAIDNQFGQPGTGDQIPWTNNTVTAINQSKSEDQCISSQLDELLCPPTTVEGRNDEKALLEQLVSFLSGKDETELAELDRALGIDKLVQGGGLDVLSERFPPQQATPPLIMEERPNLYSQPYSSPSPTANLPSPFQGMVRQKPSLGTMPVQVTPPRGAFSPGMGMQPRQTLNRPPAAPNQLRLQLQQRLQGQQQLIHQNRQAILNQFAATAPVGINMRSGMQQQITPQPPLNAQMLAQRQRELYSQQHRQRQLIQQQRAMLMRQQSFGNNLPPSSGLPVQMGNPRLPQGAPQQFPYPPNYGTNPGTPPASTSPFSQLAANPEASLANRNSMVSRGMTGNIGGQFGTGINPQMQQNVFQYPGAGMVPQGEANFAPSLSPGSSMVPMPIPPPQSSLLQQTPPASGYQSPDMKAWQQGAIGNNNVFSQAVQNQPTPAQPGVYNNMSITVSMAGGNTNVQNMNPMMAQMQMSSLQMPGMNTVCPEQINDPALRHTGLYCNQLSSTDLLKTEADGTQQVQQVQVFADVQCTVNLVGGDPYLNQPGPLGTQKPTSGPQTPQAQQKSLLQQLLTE
Peroxisome proliferator-activated receptor gamma/Nuclear receptor coactivator 2, sequence (P37231 whole entry): as the sequence (P37231 whole entry) above
Peroxisome proliferator-activated receptor gamma/Nuclear receptor coactivator 2, sequence (Q15596 whole entry, further chain): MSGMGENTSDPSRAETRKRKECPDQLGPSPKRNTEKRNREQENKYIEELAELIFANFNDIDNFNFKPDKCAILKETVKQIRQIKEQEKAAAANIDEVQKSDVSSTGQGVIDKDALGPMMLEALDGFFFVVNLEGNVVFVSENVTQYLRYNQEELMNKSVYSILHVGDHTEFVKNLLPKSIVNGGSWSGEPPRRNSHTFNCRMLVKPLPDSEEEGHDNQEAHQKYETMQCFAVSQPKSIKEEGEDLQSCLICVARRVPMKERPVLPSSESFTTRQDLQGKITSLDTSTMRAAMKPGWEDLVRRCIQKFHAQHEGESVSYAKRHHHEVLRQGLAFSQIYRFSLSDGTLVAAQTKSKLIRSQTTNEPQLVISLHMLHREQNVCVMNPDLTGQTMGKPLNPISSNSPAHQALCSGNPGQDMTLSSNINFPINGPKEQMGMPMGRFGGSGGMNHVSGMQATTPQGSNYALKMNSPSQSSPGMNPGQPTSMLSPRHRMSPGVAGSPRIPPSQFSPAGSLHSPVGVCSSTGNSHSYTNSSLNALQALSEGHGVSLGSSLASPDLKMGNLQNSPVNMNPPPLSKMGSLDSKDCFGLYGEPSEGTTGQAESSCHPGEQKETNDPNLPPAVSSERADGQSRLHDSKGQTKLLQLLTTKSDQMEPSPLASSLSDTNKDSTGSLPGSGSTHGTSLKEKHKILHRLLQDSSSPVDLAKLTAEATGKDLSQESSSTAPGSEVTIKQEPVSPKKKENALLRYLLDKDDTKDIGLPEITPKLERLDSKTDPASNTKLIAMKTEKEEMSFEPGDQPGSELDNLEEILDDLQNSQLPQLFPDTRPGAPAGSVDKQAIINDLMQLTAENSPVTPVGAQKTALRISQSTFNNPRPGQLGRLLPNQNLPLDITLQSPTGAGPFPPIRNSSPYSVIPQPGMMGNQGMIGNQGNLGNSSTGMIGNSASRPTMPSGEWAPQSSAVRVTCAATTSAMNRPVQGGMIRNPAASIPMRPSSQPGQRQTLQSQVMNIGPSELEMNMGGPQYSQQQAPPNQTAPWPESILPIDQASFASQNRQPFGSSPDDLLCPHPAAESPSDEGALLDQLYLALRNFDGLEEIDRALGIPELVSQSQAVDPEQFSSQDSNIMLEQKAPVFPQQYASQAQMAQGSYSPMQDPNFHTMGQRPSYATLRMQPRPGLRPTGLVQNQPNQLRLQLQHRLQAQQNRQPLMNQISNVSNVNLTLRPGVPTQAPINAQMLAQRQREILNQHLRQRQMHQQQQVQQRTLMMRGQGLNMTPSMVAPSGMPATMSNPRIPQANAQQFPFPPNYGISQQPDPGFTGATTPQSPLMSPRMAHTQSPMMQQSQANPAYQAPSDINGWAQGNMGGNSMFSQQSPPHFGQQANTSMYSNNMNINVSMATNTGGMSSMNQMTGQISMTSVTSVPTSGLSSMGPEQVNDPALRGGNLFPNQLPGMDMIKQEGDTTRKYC
Beta-galactosidase, sequence (Q8VNN2 whole entry): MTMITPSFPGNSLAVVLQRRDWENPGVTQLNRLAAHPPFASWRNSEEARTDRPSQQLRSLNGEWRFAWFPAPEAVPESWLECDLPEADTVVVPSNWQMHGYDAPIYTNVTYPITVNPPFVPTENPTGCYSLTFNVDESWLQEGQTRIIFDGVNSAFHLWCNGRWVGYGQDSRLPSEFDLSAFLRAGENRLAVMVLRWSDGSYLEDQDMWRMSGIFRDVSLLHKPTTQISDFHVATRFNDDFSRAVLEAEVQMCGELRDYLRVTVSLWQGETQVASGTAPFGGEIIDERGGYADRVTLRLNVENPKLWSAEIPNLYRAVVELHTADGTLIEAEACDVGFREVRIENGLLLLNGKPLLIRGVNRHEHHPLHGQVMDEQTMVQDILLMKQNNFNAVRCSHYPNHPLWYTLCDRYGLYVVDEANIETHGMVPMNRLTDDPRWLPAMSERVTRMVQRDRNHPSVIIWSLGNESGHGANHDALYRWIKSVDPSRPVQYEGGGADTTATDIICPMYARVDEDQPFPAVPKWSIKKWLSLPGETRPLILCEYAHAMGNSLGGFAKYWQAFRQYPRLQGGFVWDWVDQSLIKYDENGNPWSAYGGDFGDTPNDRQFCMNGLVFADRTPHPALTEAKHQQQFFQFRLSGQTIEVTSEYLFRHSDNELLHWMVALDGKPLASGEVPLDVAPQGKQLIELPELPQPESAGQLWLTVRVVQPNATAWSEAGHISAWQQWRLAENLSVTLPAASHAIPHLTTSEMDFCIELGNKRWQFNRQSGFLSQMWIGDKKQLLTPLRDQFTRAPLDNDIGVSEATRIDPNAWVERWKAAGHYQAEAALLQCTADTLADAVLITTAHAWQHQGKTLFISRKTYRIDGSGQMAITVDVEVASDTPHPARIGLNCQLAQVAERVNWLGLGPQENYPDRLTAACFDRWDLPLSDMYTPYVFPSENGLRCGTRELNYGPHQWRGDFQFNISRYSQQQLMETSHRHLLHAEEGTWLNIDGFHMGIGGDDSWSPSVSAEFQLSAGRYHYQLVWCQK

O=[N+]([O-])c1ccc(S(=O)(=O)c2ccccc2)nc1
EC50 [1]: 1.89 µM (active) | IC50 [2]: 2.65 µM (active) | AC50 (INS1): 6.73 µM (active) | AC50 [3]: 1.74 µM (active) | CC50 [4]: 8.09 µM (active) | EC50 [5]: 5.64 µM (active) | AC50 [6]: 3.97 µM (active) | AC50 [7]: 8.59 µM (active) | IC50 [8]: 13.1 µM (active) | IC50 [9]: 3.48 µM (active) | AC50 [10]: 6.81 µM (active) | AC50 [11]: 16.2 µM (active) | EC50 [12]: 2.5 µM (active) | EC50 (Beta-galactosidase): > 40 µM (inactive) | AC50 [13]: 8.17 µM (active) | AC50 [14]: 4.77 µM (active) | AC50 [15]: 3.96 µM (active)

Cc1ccc(CN2CCSc3ccc(C(=O)NC4CCN(Cc5ccccc5)CC4)cc32)cc1
EC50 [1]: 1.37 µM (active) | EC50 [12]: > 60 µM (not active) | CC50 [16]: > 40 µM (active)

CCOc1cc(S(=O)(=O)Nc2cc(C)cc(C)c2)ccc1Cl
Absolute IC50 (XBP1) (X-box-binding protein 1): 10 µM

O=C(c1cc(-c2ccco2)nc2ccccc12)N1CCC(CO)CC1
IC50 [17]: > 56.8 µM (inactive)

CCN(CC)C(=O)C1CCCN(c2ccc([N+](=O)[O-])cc2/C=N/NC(=O)c2cccc([N+](=O)[O-])c2)C1 (stereo not given)
CC50 [16]: > 40 µM (active)

O=C(N/N=C/c1ccsc1)c1cc2ccccc2o1
EC50 [18]: > 120 µM (not active)

CCOc1ccc(/C=N/n2cc(-c3ccccc3)nc2S)cc1
EC50 [1]: 2.35 µM (active) | EC50 [19]: > 79.4 µM (not active) | EC50 [20]: > 79.4 µM (not active) | EC50 [12]: > 60 µM (not active) | EC50 [21]: 4.76 µM (active) | EC50 [22]: > 79.4 µM (not active)

Cc1ccc(-n2ncc(C(=O)Nc3cc(Cl)cc(Cl)c3)c2C2CCNCC2)cc1C
EC50 [1]: 2.02 µM (active) | EC50 [23]: 5.28 µM (active) | EC50 [24]: 9.16 µM (active) | EC50 (BJ [25]): 6.96 µM (inconclusive) | EC50 (BJ [26]): 3.72 µM (active) | EC50 [27]: 7.75 µM (active) | EC50 [28]: > 120 µM (not active) | IC50 [9]: 5.23 µM (active) | EC50 (BJ [29]): 8.6 µM (inconclusive) | EC50 [12]: > 30 µM (not active)
